Experimental data taken from patent US9586969B2, “Microbiocidal heterobicyclic derivatives” (Syngenta Participations AG, priority 2014, dated 2017).
Read-outs that look alike come from different tables or passages of the source.

What was measured:
Assay type in all cases: cell-based
[1] = tested on: Glomerella lagenarium (Colletotrichum lagenarium); assay: Glomerella lagenarium (Colletotrichum lagenarium) / liquid culture (Anthracnose); details: Colletotrichum orbiculare, read-out: disease control
[2] = tested on: Monographella nivalis (Microdochium nivale); assay: Monographella nivalis (Microdochium nivale) / liquid culture (Foot rot cereals); details: 96 h, read-out: disease control
Fusarium culmorum = assay: microbe, parasite or virus in culture; details: 72 h, read-out: disease control
[3] = tested on: Botryotinia fuckeliana (Botrytis cinerea); assay: Botryotinia fuckeliana (Botrytis cinerea) / liquid culture (Gray mould); details: 72 h, read-out: disease control
[4] = 200 ppm, liquid culture, 24° C., inhibition of growth measured photometrically 3-4 days after application, vs untreated control
[5] = 200 ppm, liquid culture, 24° C., inhibition of growth determined photometrically 4-5 days after application, vs untreated control
[6] = 200 ppm, liquid culture, 24° C., inhibition of growth determined photometrically 3-4 days after application, vs untreated control

CC1(C)N=C(c2cnn3cccc3c2)c2ccc(F)cc2C1(C)C [E 72]
inhibition of growth at 200 ppm [1, 4]: ≥ 80%
inhibition of growth at 200 ppm [2, 5]: ≥ 80%
inhibition of growth at 200 ppm (Fusarium culmorum): ≥ 80%
inhibition of growth at 200 ppm [3, 6]: ≥ 80%

Cc1ccc2cc(C3=NC(C)(C)Cc4c(F)cccc43)cnn12 [E 26]
inhibition of growth at 200 ppm [1, 4]: ≥ 80%
inhibition of growth at 200 ppm [2, 5]: ≥ 80%
inhibition of growth at 200 ppm (Fusarium culmorum): ≥ 80%
inhibition of growth at 200 ppm [3, 6]: ≥ 80%

Cc1c(C2=NC(C)(C)C(C)(C)c3c2ccc(F)c3F)cnn2cccc12 [E 81]
inhibition of growth at 200 ppm [1, 4]: ≥ 80%
inhibition of growth at 200 ppm (Fusarium culmorum): ≥ 80%
inhibition of growth at 200 ppm [3, 6]: ≥ 80%

CC1(C)N=C(c2cnn3cccc3c2)c2cccc(C#N)c2C1(C)C [E 68]
inhibition of growth at 200 ppm [1, 4]: ≥ 80%
inhibition of growth at 200 ppm [3, 6]: ≥ 80%

CC1(C)Cc2c(OC(F)F)cccc2C(c2cnn3cccc3c2)=N1 [E 39]
inhibition of growth at 200 ppm [3, 6]: ≥ 80%

CC1(C)Cc2ccccc2C(c2cnn3c(Br)ccc3c2)=N1 [E 65]
inhibition of growth at 200 ppm [2, 5]: ≥ 80%
inhibition of growth at 200 ppm [3, 6]: ≥ 80%

CC1(C)N=C(c2cnn3c(Br)cnc3c2)c2cccc(F)c2C1(F)F [E 91]
inhibition of growth at 200 ppm [3, 6]: ≥ 80%

Cc1nn2cccc2cc1C1=NC(C)(C)C(C)(C)c2c1ccc(F)c2F [E 80]
inhibition of growth at 200 ppm [1, 4]: ≥ 80%
inhibition of growth at 200 ppm [2, 5]: ≥ 80%
inhibition of growth at 200 ppm (Fusarium culmorum): ≥ 80%
inhibition of growth at 200 ppm [3, 6]: ≥ 80%

CC1(C)N=C(c2cnn3cccc3c2)c2ccccc2C1(F)F [E 71]
inhibition of growth at 200 ppm [1, 4]: ≥ 80%
inhibition of growth at 200 ppm [2, 5]: ≥ 80%
inhibition of growth at 200 ppm (Fusarium culmorum): ≥ 80%
inhibition of growth at 200 ppm [3, 6]: ≥ 80%

Cc1c(C2=NC(C)(C)C(C)(C)c3cc(F)ccc32)cnn2cccc12 [E 79]
inhibition of growth at 200 ppm [1, 4]: ≥ 80%
inhibition of growth at 200 ppm (Fusarium culmorum): ≥ 80%
inhibition of growth at 200 ppm [3, 6]: ≥ 80%

CC1(C)N=C(c2cnn3ccnc3c2)c2cccc(F)c2C1(C)C [E 85]
inhibition of growth at 200 ppm [1, 4]: ≥ 80%
inhibition of growth at 200 ppm [2, 5]: ≥ 80%
inhibition of growth at 200 ppm [3, 6]: ≥ 80%

CC1(C)N=C(c2cnn3c(C(F)(F)F)cc(C(F)(F)F)c3c2)c2cccc(F)c2C1(C)C [E 36]
inhibition of growth at 200 ppm [3, 6]: ≥ 80%

CC1(C)Cc2c(cccc2-c2ccccc2F)C(c2cnn3c(F)ccc3c2)=N1 [E 28]
inhibition of growth at 200 ppm [1, 4]: ≥ 80%
inhibition of growth at 200 ppm [3, 6]: ≥ 80%

C#Cc1cc(F)n2ncc(C3=NC(C)(C)C(C)(C)c4c(F)cccc43)cc12 [E 40]
inhibition of growth at 200 ppm [1, 4]: ≥ 80%
inhibition of growth at 200 ppm [3, 6]: ≥ 80%

CC1(C)N=C(c2cnn3c(Cl)cc(Cl)c3c2)c2cccc(F)c2C1(C)C [E 69]
inhibition of growth at 200 ppm [1, 4]: ≥ 80%
inhibition of growth at 200 ppm [2, 5]: ≥ 80%
inhibition of growth at 200 ppm [3, 6]: ≥ 80%

C#Cc1ccc2cc(C3=NC(C)(C)C(C)(C)c4c(F)cccc43)cnn12 [E 62]
inhibition of growth at 200 ppm [1, 4]: ≥ 80%
inhibition of growth at 200 ppm [2, 5]: ≥ 80%
inhibition of growth at 200 ppm [3, 6]: ≥ 80%

CC1(C)Cc2ccccc2C(c2cnn3c(F)ccc3c2)=N1 [E 8]
inhibition of growth at 200 ppm [1, 4]: ≥ 80%
inhibition of growth at 200 ppm [2, 5]: ≥ 80%
inhibition of growth at 200 ppm [3, 6]: ≥ 80%

Cc1c(C2=NC(C)(C)C(C)(C)c3c(F)cccc32)cnn2c(C#N)ccc12 [E 83]
inhibition of growth at 200 ppm [1, 4]: ≥ 80%
inhibition of growth at 200 ppm [3, 6]: ≥ 80%

CC1(C)N=C(c2cnn3cccc3c2)c2ccccc2C1(C)C [E 61]
inhibition of growth at 200 ppm [1, 4]: ≥ 80%
inhibition of growth at 200 ppm (Fusarium culmorum): ≥ 80%
inhibition of growth at 200 ppm [3, 6]: ≥ 80%

Cc1nn2cccc2cc1C1=NC(C)(C)C(C)(C)c2c(F)cccc21 [E 92]
inhibition of growth at 200 ppm [1, 4]: ≥ 80%
inhibition of growth at 200 ppm [3, 6]: ≥ 80%

CC1(C)Cc2c(cccc2C(F)F)C(c2cnn3cccc3c2)=N1 [E 32]
inhibition of growth at 200 ppm [1, 4]: ≥ 80%
inhibition of growth at 200 ppm [2, 5]: ≥ 80%
inhibition of growth at 200 ppm (Fusarium culmorum): ≥ 80%
inhibition of growth at 200 ppm [3, 6]: ≥ 80%

CC1(C)Cc2ccccc2C(c2cnn3cccc3c2)=N1 [E 10, 3,3-dimethyl-1-pyrrolo[1,2-b]pyridazin-3-yl-4H-isoquinoline]
inhibition of growth at 200 ppm [1, 4]: ≥ 80%
inhibition of growth at 200 ppm [2, 5]: ≥ 80%
inhibition of growth at 200 ppm [3, 6]: ≥ 80%

CC1(C)N=C(c2cnn3cc(F)cc3c2)c2cccc(F)c2C1(C)C [E 74]
inhibition of growth at 200 ppm [1, 4]: ≥ 80%
inhibition of growth at 200 ppm [2, 5]: ≥ 80%
inhibition of growth at 200 ppm (Fusarium culmorum): ≥ 80%
inhibition of growth at 200 ppm [3, 6]: ≥ 80%

Cc1cnc2cc(C3=NC(C)(C)C(F)(F)c4c(F)cccc43)cnn12 [E 90]
inhibition of growth at 200 ppm [1, 4]: ≥ 80%
inhibition of growth at 200 ppm [2, 5]: ≥ 80%
inhibition of growth at 200 ppm (Fusarium culmorum): ≥ 80%
inhibition of growth at 200 ppm [3, 6]: ≥ 80%

CC1(C)N=C(c2cnn3ccc(Br)c3c2)c2ccccc2C1=O [E 67]
inhibition of growth at 200 ppm [1, 4]: ≥ 80%
inhibition of growth at 200 ppm [2, 5]: ≥ 80%

Cc1c(C2=NC(C)(C)C(C)(C)c3c(F)cccc32)cnn2cccc12 [E 93]
inhibition of growth at 200 ppm [1, 4]: ≥ 80%
inhibition of growth at 200 ppm [3, 6]: ≥ 80%

CC1(C)Cc2c(F)cccc2C(c2cnn3ccnc3c2)=N1 [E 86]
inhibition of growth at 200 ppm [3, 6]: ≥ 80%

Cc1nn2cccc2cc1C1=NC(C)(C)C(C)(C)c2cc(F)ccc21 [E 78]
inhibition of growth at 200 ppm [1, 4]: ≥ 80%
inhibition of growth at 200 ppm (Fusarium culmorum): ≥ 80%
inhibition of growth at 200 ppm [3, 6]: ≥ 80%

CC1(C)N=C(c2cnn3cccc3c2)c2ccc(F)c(F)c2C1(C)C [E 73]
inhibition of growth at 200 ppm [1, 4]: ≥ 80%
inhibition of growth at 200 ppm [2, 5]: ≥ 80%
inhibition of growth at 200 ppm (Fusarium culmorum): ≥ 80%
inhibition of growth at 200 ppm [3, 6]: ≥ 80%

CC1(C)N=C(c2cnn3cccc3c2)c2cccc(F)c2C1(C)C [E 45]
inhibition of growth at 200 ppm (Fusarium culmorum): ≥ 80%

CC1(C)N=C(c2cnn3c(Br)cc(Br)c3c2)c2cccc(F)c2C1(C)C [E 44]
inhibition of growth at 200 ppm [3, 6]: ≥ 80%

CO/N=C(\C)c1cccc2c1CC(C)(C)N=C2c1cnn2cccc2c1 [E 56]
inhibition of growth at 200 ppm [1, 4]: ≥ 80%
inhibition of growth at 200 ppm [3, 6]: ≥ 80%

CC1(C)N=C(c2cnn3c(Cl)ccc3c2)c2cccc(F)c2C1(C)C [E 13]
inhibition of growth at 200 ppm [1]: ≥ 80%
inhibition of growth at 200 ppm [2]: ≥ 80%
inhibition of growth at 200 ppm [3]: ≥ 80%

CC1(C)N=C(c2cnn3cccc3c2)c2ccc(Cl)c(F)c2C1(C)C [E 94]
inhibition of growth at 200 ppm [1, 4]: ≥ 80%
inhibition of growth at 200 ppm [3, 6]: ≥ 80%

Cc1ccc2cc(C3=NC(C)(C)C(C)(C)c4c(F)cccc43)cnn12 [E 53]
inhibition of growth at 200 ppm [1, 4]: ≥ 80%
inhibition of growth at 200 ppm [2, 5]: ≥ 80%
inhibition of growth at 200 ppm (Fusarium culmorum): ≥ 80%
inhibition of growth at 200 ppm [3, 6]: ≥ 80%

CC1(C)Cc2ccccc2C(c2cnn3cccc3c2)N1 (stereo not drawn) [E 20]
inhibition of growth at 200 ppm [3, 6]: ≥ 80%

CC1(C)N=C(c2cnn3ccnc3c2)c2cccc(F)c2C1(F)F [E 89]
inhibition of growth at 200 ppm [1, 4]: ≥ 80%
inhibition of growth at 200 ppm [3, 6]: ≥ 80%

CC1(C)N=C(c2cnn3c(F)cc(C(F)(F)F)c3c2)c2cccc(F)c2C1(C)C [E 35]
inhibition of growth at 200 ppm [1, 4]: ≥ 80%
inhibition of growth at 200 ppm [3, 6]: ≥ 80%

Cc1cccc2c1CC(C)(C)N=C2c1cnn2cccc2c1 [E 4]
inhibition of growth at 200 ppm [1, 4]: ≥ 80%
inhibition of growth at 200 ppm [2, 5]: ≥ 80%
inhibition of growth at 200 ppm [3, 6]: ≥ 80%

CC1(C)Cc2c(F)cccc2C(c2cnn3c(F)ccc3c2)=N1 [E 7, 5-fluoro-1-(7-fluoro-pyrrolo[1,2-b]pyridazin-3-yl)-3,3-dimethyl-3,4-dihydro-isoquinoline]
inhibition of growth at 200 ppm [1, 4]: ≥ 80%
inhibition of growth at 200 ppm [2, 5]: ≥ 80%
inhibition of growth at 200 ppm (Fusarium culmorum): ≥ 80%
inhibition of growth at 200 ppm [3, 6]: ≥ 80%

COc1cccc2c1CC(C)(C)N=C2c1cnn2c(F)ccc2c1 [E 23]
inhibition of growth at 200 ppm [1, 4]: ≥ 80%
inhibition of growth at 200 ppm [3, 6]: ≥ 80%

CO/N=C(/C)c1cccc2c1CC(C)(C)N=C2c1cnn2cccc2c1 [E 57]
inhibition of growth at 200 ppm [1, 4]: ≥ 80%
inhibition of growth at 200 ppm [3, 6]: ≥ 80%

Cc1c(C2=NC(C)(C)C(C)(C)c3c(F)cccc32)cnn2c(F)ccc12 [E 95]
inhibition of growth at 200 ppm [1, 4]: ≥ 80%
inhibition of growth at 200 ppm [3, 6]: ≥ 80%

CC1(C)Cc2c(C#N)cccc2C(c2cnn3cccc3c2)=N1 [E 58]
inhibition of growth at 200 ppm [1, 4]: ≥ 80%
inhibition of growth at 200 ppm (Fusarium culmorum): ≥ 80%
inhibition of growth at 200 ppm [3, 6]: ≥ 80%

CC1(C)N=C(c2cnn3c(C(F)(F)F)ccc3c2)c2cccc(F)c2C1(C)C [E 43]
inhibition of growth at 200 ppm [1, 4]: ≥ 80%
inhibition of growth at 200 ppm [2, 5]: ≥ 80%
inhibition of growth at 200 ppm [3, 6]: ≥ 80%

CC1(C)Cc2c(C#N)cccc2C(c2cnn3c(F)ccc3c2)=N1 [E 22]
inhibition of growth at 200 ppm [1, 4]: ≥ 80%
inhibition of growth at 200 ppm [2, 5]: ≥ 80%
inhibition of growth at 200 ppm (Fusarium culmorum): ≥ 80%
inhibition of growth at 200 ppm [3, 6]: ≥ 80%

CC1(C)Cc2c(cccc2C2CC2)C(c2cnn3cccc3c2)=N1 [E 59]
inhibition of growth at 200 ppm [3, 6]: ≥ 80%

CC1(C)N=C(c2cnn3c(F)cc(C#N)c3c2)c2cccc(F)c2C1(C)C [E 25]
inhibition of growth at 200 ppm [1, 4]: ≥ 80%
inhibition of growth at 200 ppm [2, 5]: ≥ 80%
inhibition of growth at 200 ppm [3, 6]: ≥ 80%

CC1(C)Cc2c(Cl)cccc2C(c2cnn3cccc3c2)=N1 [E 6]
inhibition of growth at 200 ppm [1, 4]: ≥ 80%
inhibition of growth at 200 ppm [2, 5]: ≥ 80%
inhibition of growth at 200 ppm (Fusarium culmorum): ≥ 80%
inhibition of growth at 200 ppm [3, 6]: ≥ 80%

CC1(C)N=C(c2cnn3ccc(Cl)c3c2)c2cccc(F)c2C1(C)C [E 16]
inhibition of growth at 200 ppm [1, 4]: ≥ 80%
inhibition of growth at 200 ppm [3, 6]: ≥ 80%

Cc1c(C2=NC(C)(C)C(C)(C)c3c(F)cccc32)cnn2c(Br)ccc12 [E 82]
inhibition of growth at 200 ppm [1, 4]: ≥ 80%
inhibition of growth at 200 ppm [2, 5]: ≥ 80%
inhibition of growth at 200 ppm [3, 6]: ≥ 80%

CC1(C)N=C(c2cnn3ccc(Br)c3c2)c2ccccc2C1(F)F [E 70]
inhibition of growth at 200 ppm [1, 4]: ≥ 80%
inhibition of growth at 200 ppm [2, 5]: ≥ 80%
inhibition of growth at 200 ppm [3, 6]: ≥ 80%

CC1(C)Cc2c(F)cccc2C(c2cnn3c(F)cc(F)c3c2)=N1 [E 11]
inhibition of growth at 200 ppm [1, 4]: ≥ 80%
inhibition of growth at 200 ppm [3, 6]: ≥ 80%

CC1(C)N=C(c2cnn3c(C#N)cnc3c2)c2cccc(F)c2C1(F)F [E 88]
inhibition of growth at 200 ppm [3, 6]: ≥ 80%

CC1(C)N=C(c2cnn3c(I)ccc3c2)c2cccc(F)c2C1(C)C [E 37]
inhibition of growth at 200 ppm [1, 4]: ≥ 80%
inhibition of growth at 200 ppm [2, 5]: ≥ 80%
inhibition of growth at 200 ppm [3, 6]: ≥ 80%

CC1(C)Cc2c(O)cccc2C(c2cnn3cccc3c2)=N1 [E 34]
inhibition of growth at 200 ppm [1, 4]: ≥ 80%
inhibition of growth at 200 ppm [3, 6]: ≥ 80%
